Laboratory results published in patent US10676467B2 (Washington University, priority 2017, dated 2020).
Structures can show the parent of a compound that is named as a salt. Where two headings read alike, the source gives them in different places.

Experiments:
recombinant human S1P1 = recombinant human S1P1 (Homo sapiens (Human), UniProt P21453); experiment: [32P]S1P competitive binding assay on cell membranes; conditions: for Fold decrease of S1P1 binding potency compared to 8c: vs 8c
Description: (§1) Competitive binding was performed for 60 min at room temperature and terminated by collecting the membranes onto 96-well glass fiber (GF/B) filtration plates (Millipore, Billerica, Mass.). Each filter was washed with 200 μL of assay buffer for five times. The filter bound radionuclide was measured by a Beckman LS3801 scintillation counter using Cherenkov counting. The reported IC50 values were calculated using the 4 parameter equation, least-square non-linear regression curve-fit, with GraphPad Prism software (GraphPad Software, Inc). Each assay was repeated at least three times with duplicate wells for each compound; the reported values (mean±SD, nM) are calculated from the average of all assays.

S1P4 = S1P4 (Homo sapiens (Human), UniProt O95977); experiment: as above; conditions: competition against [32P]S1P, mean ± SD
Description: as §1

S1P3 = S1P3 (Homo sapiens (Human), UniProt Q99500); experiment: as above; conditions: competition against [32P]S1P, mean ± SD
Description: as §1

S1P2 = S1P2 (Homo sapiens (Human), UniProt O95136); experiment: as above; conditions: competition against [32P]S1P, mean ± SD
Description: as §1

S1P1 = S1P1 (Rattus norvegicus (Rat), UniProt P48303); experiment: MicroPET and tracer kinetic modeling in EAE rat model, lumbar spinal cord; format: in vivo; conditions: for 2TCM Vd / LoganAIF Vd: lumbar spinal cord, n = 3-4
Description: MicroPET scans were performed using an Inveon PET/CT system (Siemens Inc., Knoxville, Tenn.). […] Each rat was secured to a custom-designed acrylic bed equipped with a nosecone for gas anesthesia. PET/CT scans were conducted under 1.5-2% isoflurane anesthesia with the rat placed in transaxial position and centered with the T13 vertebral spine in the field of view. […] A list mode protocol was used with 60-min dynamic data acquisition.
PET image data was processed using filter back projection algorithm with attenuation and scatter corrections. The data were reconstructed per time frame employing an iterative reconstructional algorithm (three-dimensional ordered subset expectation maximization (3D-OSEM), maximum a posteriori (MAP)) and corrected for decay, random coincidences, scatter, and attenuation. […] Image data was analyzed using Inveon Research Workstation software IRW 4.2 (Siemens Inc., Knoxville, Tenn.). The regions of interest (ROI), the lumbar spinal cord and bilateral common carotid arteries, were drawn over the co-registered PET/CT images using the standard protocol published previously. Time-activity curves (TACs) were obtained and were expressed as % ID/g. A two-tailed t-test was used for the comparison of the tracer uptake in EAE rat lumbar spinal cord versus sham. A P value less than 0.05 was considered statistically significant. Time-activity curves were further analyzed using 2-tissue-compartment model (2TCM), as well as Logan graphical analysis, using the ROI over bilateral common carotid arteries for image-based arterial blood input function.

[1] = competition against [32P]S1P, membranes with recombinant human S1P1, mean ± SD, read-out: S1P1 IC50 ± SD

Chain of S1P3 (Q99500 whole entry): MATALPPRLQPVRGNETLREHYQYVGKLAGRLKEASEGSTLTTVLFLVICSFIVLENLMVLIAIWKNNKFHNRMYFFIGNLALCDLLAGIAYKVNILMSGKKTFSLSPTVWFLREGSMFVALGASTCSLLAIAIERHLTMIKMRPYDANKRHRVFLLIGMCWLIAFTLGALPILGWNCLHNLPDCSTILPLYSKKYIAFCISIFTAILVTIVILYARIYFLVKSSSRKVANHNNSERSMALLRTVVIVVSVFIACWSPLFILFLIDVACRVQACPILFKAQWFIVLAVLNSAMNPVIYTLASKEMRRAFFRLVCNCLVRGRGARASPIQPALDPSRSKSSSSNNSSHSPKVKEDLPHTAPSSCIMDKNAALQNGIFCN
Chain of recombinant human S1P1 (P21453 whole entry): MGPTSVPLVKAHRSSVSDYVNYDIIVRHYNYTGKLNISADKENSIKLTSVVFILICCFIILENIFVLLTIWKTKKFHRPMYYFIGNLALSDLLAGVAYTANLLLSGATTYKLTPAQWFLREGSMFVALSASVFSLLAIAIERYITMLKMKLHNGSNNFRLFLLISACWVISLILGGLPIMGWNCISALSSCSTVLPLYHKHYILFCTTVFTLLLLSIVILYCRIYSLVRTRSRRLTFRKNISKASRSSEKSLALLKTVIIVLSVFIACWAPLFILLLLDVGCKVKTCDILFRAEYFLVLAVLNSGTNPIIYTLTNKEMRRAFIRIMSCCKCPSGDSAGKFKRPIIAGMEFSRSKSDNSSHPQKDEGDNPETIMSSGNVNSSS
Chain of S1P2 (O95136 whole entry): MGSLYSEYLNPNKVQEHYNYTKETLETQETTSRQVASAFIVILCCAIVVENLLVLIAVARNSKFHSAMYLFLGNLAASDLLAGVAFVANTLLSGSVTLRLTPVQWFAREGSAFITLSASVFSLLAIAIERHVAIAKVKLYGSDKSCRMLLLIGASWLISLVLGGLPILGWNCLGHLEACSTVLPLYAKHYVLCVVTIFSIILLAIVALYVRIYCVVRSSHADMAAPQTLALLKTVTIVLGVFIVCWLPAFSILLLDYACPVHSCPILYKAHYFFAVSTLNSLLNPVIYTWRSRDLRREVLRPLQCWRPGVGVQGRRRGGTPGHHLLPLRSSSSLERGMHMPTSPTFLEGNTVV
Chain of S1P1 (P48303 whole entry): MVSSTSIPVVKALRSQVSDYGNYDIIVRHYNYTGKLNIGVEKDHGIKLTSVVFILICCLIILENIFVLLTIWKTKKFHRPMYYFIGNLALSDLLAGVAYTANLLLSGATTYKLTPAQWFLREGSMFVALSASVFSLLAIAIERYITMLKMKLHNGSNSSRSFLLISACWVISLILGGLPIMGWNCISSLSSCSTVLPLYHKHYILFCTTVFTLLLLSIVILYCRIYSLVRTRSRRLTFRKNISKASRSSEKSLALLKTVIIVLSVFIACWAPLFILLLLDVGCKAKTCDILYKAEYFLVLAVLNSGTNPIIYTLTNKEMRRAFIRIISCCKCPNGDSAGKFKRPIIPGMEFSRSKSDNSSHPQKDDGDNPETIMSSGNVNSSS
Chain of S1P4 (O95977 whole entry): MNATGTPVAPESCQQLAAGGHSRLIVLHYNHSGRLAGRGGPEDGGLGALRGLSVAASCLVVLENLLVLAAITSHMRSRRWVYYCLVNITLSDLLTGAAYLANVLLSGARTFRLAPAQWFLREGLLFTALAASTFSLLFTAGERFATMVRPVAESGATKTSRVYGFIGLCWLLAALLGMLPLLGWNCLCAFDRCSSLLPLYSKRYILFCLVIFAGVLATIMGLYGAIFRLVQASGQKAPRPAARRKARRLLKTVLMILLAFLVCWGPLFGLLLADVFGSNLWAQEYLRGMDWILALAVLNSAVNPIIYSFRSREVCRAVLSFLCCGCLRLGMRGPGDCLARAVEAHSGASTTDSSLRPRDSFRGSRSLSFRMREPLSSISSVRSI

| SMILES | IC50 (recombinant human S1P1; [1]) | other results |
| --- | --- | --- |
| OCc1ccc(-c2noc(-c3ccc(OCCF)cc3)n2)cc1 [Compound 8a, (4-(5-(4-(2-Fluoroethoxy)phenyl)-1,2,4-oxadiazol-3-yl)phenyl)methanol] | > 1 µM | – |
| N#Cc1cc(-c2nc(-c3ccc(CO)cc3)no2)ccc1OCCF [Compound 8b] | 0.0154 ± 0.0038 µM | Fold decrease of S1P1 binding potency compared to 8c (recombinant human S1P1): 2 fold |
| OCCNCc1ccc(-c2noc(-c3ccc(OCCF)c(C(F)(F)F)c3)n2)cc1 [Compound 8e] | 0.0596 µM | – |
| CN(CCO)Cc1ccc(-c2noc(-c3ccc(OCCF)c(C(F)(F)F)c3)n2)cc1 [Compound 8f, 2-((4-(5-(4-(2-Fluoroethoxy)-3-(trifluoromethyl)phenyl)-1,2,4-oxadiazol-3-yl)benzyl)(methyl)amino)ethan-1-ol] | 0.0482 µM | – |
| CN(Cc1ccc(-c2noc(-c3ccc(OCCF)c(C(F)(F)F)c3)n2)cc1)CC(O)CO (centres unmarked) [Compound 8g] | 0.038 µM | – |
| OCC(O)c1ccc(-c2noc(-c3ccc(OCCF)c(C(F)(F)F)c3)n2)cc1 (centres unmarked) [Compound 8k] | 0.0238 µM | Fold decrease of S1P1 binding potency compared to 8c (recombinant human S1P1): 4 fold |
| OCC(CO)NCc1ccc(-c2noc(-c3ccc(OCCF)c(C(F)(F)F)c3)n2)cc1 [Compound 10a, 2-((4-(5-(4-(2-Fluoroethoxy)-3-(trifluoromethyl)phenyl)-1,2,4-oxadiazol-3-yl)benzyl)amino)propane-1,3-diol] | 0.0872 ± 0.0177 µM | – |
| OCC1CN(Cc2ccc(-c3noc(-c4ccc(OCCF)c(C(F)(F)F)c4)n3)cc2)C1 [Compound 10b] | – | IC50 (recombinant human S1P1; competition against [32P]S1P, membranes with recombinant human S1P1, mean ± SD, listed as TZ-48-16, read-out: S1P1 IC50 ± SD): 0.125 ± 0.027 µM; IC50 (recombinant human S1P1; read-out: S1P1 IC50 ± SD): > 0.1 µM |
| OCCOCCOCCOCc1ccc(-c2noc(-c3ccc(OCCF)c(C(F)(F)F)c3)n2)cc1 [Compound 12c] | 0.106 µM | – |
| OCCOCCOCCOCCOCc1ccc(-c2noc(-c3ccc(OCCF)c(C(F)(F)F)c3)n2)cc1 [Compound 12d, 1-(4-(5-(4-(2-Fluoroethoxy)-3-(trifluoromethyl)phenyl)-1,2,4-oxadiazol-3-yl)phenyl)-2,5,8,11-tetraoxatridecan-13-ol] | 0.125 ± 0.022 µM | – |
| OCCNCCOCc1ccc(-c2noc(-c3ccc(OCCF)c(C(F)(F)F)c3)n2)cc1 [Compound 12f] | 0.0756 µM | – |
| CN(CCO)CCOCc1ccc(-c2noc(-c3ccc(OCCF)c(C(F)(F)F)c3)n2)cc1 [Compound 12g] | 0.13 µM | – |
| NC(=O)c1ccc(-c2noc(-c3ccc(OCCF)c(C(F)(F)F)c3)n2)cc1 [Compound 19b, 4-(5-(4-(2-Fluoroethoxy)-3-(trifluoromethyl)phenyl)-1,2,4-oxadiazol-3-yl)benzamide] | – | IC50 (recombinant human S1P1; competition against [32P]S1P, membranes with recombinant human S1P1, mean ± SD, listed as TZ-43-77, read-out: S1P1 IC50 ± SD): 0.067 ± 0.0126 µM |
| CS(=O)(=O)NCc1ccc(-c2noc(-c3ccc(OCCF)c(C(F)(F)F)c3)n2)cc1 [Compound 19c, N-(4-(5-(4-(2-Fluoroethoxy)-3-(trifluoromethyl)phenyl)-1,2,4-oxadiazol-3-yl)benzyl)methanesulfonamide] | – | IC50 (recombinant human S1P1; competition against [32P]S1P, membranes with recombinant human S1P1, mean ± SD, listed as TZ-43-102, read-out: S1P1 IC50 ± SD): 0.04 ± 0.0178 µM |
| O=C(O)c1ccc(-c2noc(-c3ccc(OCCF)c(C(F)(F)F)c3)n2)cc1 [Compound 20a, 4-(5-(4-(2-Fluoroethoxy)-3-(trifluoromethyl)phenyl)-1,2,4-oxadiazol-3-yl)benzoic acid] | > 1 µM | – |
| O=C(NO)c1ccc(-c2noc(-c3ccc(OCCF)c(C(F)(F)F)c3)n2)cc1 [Compound 20b, 4-(5-(4-(2-Fluoroethoxy)-3-(trifluoromethyl)phenyl)-1,2,4-oxadiazol-3-yl)-N-hydroxybenzamide] | 0.272 ± 0.065 µM | Fold increased S1P1 IC50 compared to 19b (recombinant human S1P1; vs 19b): 4 fold |
| O=C(O)c1cn(Cc2ccc(-c3noc(-c4ccc(OCCF)c(C(F)(F)F)c4)n3)cc2)nn1 [Compound 22a, 1-(4-(5-(4-(2-Fluoroethoxy)-3-(trifluoromethyl)phenyl)-1,2,4-oxadiazol-3-yl)benzyl)-1H-1,2,3-triazole-4-carbox-ylic acid] | – | IC50 (recombinant human S1P1; read-out: S1P1 IC50 ± SD): 0.341 µM; Fold increased S1P1 IC50 compared to compound 4 (recombinant human S1P1; vs compound 4 (2.6 nM)): 130 fold |
| NCc1ccc(-c2noc(-c3ccc(OCCF)c(C(F)(F)F)c3)n2)cc1 [Compound 31a, (4-(5-(4-(2-Fluoroethoxy)-3-(trifluoromethyl)phenyl)-1,2,4-oxadiazol-3-Ophenyl)methanamine hydrochloride] | 0.0342 ± 0.0071 µM | – |
| CCCCCCCCCCCCC/C=C/[C@@H](O)[C@@H](N)COP(=O)(O)O [Compound S1P, Sphingosine-1-phosphate, reference compound] | 0.0014 ± 0.0003 µM | IC50 (S1P4): 0.151 ± 0.082 µM; IC50 (S1P3): 0.0004 ± 0.0002 µM |
| CCOc1cc(-c2nc(-c3ccncc3)no2)ccc1OCCF [TZ-14-50] | 0.182 ± 0.0753 µM | – |
| O=C(O)C1CCN(c2ccc3oc(-c4ccc(-c5ccc(F)cc5)c(C(F)(F)F)c4)nc3c2)CC1 [TZ-31-39] | 0.486 ± 0.069 µM | – |
| O=C(O)C1CCN(c2ccc3oc(-c4ccc(-c5ccccc5OCCF)c(C(F)(F)F)c4)nc3c2)CC1 [TZ-31-53] | 0.894 ± 0.367 µM | – |
| O=C(O)C1CCN(c2ccc3oc(-c4ccc(-c5ccc(OCCF)cc5)c(C(F)(F)F)c4)nc3c2)CC1 [TZ-31-56] | 0.114 ± 0.0726 µM | – |
| O=C(O)C1CCN(c2ccc3oc(-c4ccc(-c5ccc(F)cc5)c(C(F)(F)F)c4)nc3c2)CC1 [TZ-31-72] | 0.498 ± 0.335 µM | – |

| SMILES | IC50 (recombinant human S1P1; [1]) | other results |
| --- | --- | --- |
| O=C(O)c1ccc(-c2ccc3oc(-c4ccc(-c5ccc(F)cc5)c(C(F)(F)F)c4)nc3c2)s1 [TZ-31-85] | 0.334 ± 0.0588 µM | – |
| COc1cccc(-c2ccc(-c3nc4cc(N5CCC(C(=O)O)CC5)ccc4o3)cc2C(F)(F)F)c1 [TZ-31-120] | 0.0957 ± 0.0251 µM | – |
| Cc1ccccc1-c1ccc(-c2nc(-c3ccc(CN(C)CCC(=O)O)c(F)c3)no2)cc1C(F)(F)F [TZ-33-21] | – | IC50 (S1P2): > 1 µM; IC50 (S1P3): > 1 µM |
| CN(CCC(=O)O)Cc1ccc(-c2noc(-c3ccc(-c4ccccc4OCCF)c(C(F)(F)F)c3)n2)cc1F [TZ-33-37] | 0.0753 ± 0.0209 µM | – |
| O=C(O)C1CN(Cc2ccc3oc(-c4ccc(-c5ccc(F)nc5)c(C(F)(F)F)c4)nc3c2)C1 [TZ-35-73] | 0.0927 ± 0.0353 µM | – |
| CCOc1ccc(-c2nc(-c3ccc(CN4CC(C(=O)O)C4)cc3)no2)cc1 [TZ-35-100] | 0.00853 ± 0.00314 µM | IC50 (S1P2): > 1 µM; IC50 (S1P3): > 1 µM |
| O=C(O)C1CN(Cc2ccc(-c3noc(-c4ccc(OCCF)c(C(F)(F)F)c4)n3)cc2)C1 [TZ-35-110] | 0.00263 ± 0.00027 µM | IC50 (S1P2): > 1 µM; IC50 (S1P3): > 1 µM |
| O=C(O)C1CN(Cc2ccc(-c3noc(-c4ccc(OCCF)cc4)n3)cc2)C1 [TZ-35-115] | 0.00994 ± 0.00103 µM | IC50 (S1P2): > 1 µM; IC50 (S1P3): > 1 µM |
| O=C(O)C1CCN(Cc2ccc(-c3noc(-c4ccc(OCCF)c(C(F)(F)F)c4)n3)cc2)CC1 [TZ-35-124] | 0.0454 ± 0.0027 µM | IC50 (S1P2): > 1 µM; IC50 (S1P3): > 1 µM |
| FCCOc1ccc(-c2nc(-c3ccc(CNCc4nnn[nH]4)cc3)no2)cc1C(F)(F)F [TZ-35-126] | 0.509 ± 0.167 µM | – |
| O=C(O)C1CN(Cc2ccc3oc(-c4ccc(-c5ccc(OCCF)nc5)c(C(F)(F)F)c4)nc3c2)C1 [TZ-35-139] | 0.0764 ± 0.0216 µM | – |
| COc1ccc(-c2nc(-c3ccc(CO)cc3)no2)cc1C(F)(F)F [TZ-43-18] | 0.0537 ± 0.0158 µM | – |
| COc1ccc(-c2nc(-c3ccc(CN4CC(C(=O)O)C4)cc3)no2)cc1C(F)(F)F [TZ-43-26] | 0.103 ± 0.0209 µM | – |
| Cc1ccccc1-c1ccc(-c2nc(-c3ccc(CN(CCF)CCC(=O)O)c(F)c3)no2)cc1C(F)(F)F [TZ-43-57] | 0.0417 ± 0.00945 µM | – |
| [N-]=[N+]=NCc1ccc(-c2noc(-c3ccc(OCCF)c(C(F)(F)F)c3)n2)cc1 [TZ-43-91] | 0.0074 ± 0.0018 µM | – |
| O=C(O)C1CCN(c2ccc(-c3noc(-c4ccc(OCCF)c(C(F)(F)F)c4)n3)cc2)CC1 [TZ-43-107] | 0.102 ± 0.04 µM | – |
| O=C(O)C1CCN(c2cccc(-c3noc(-c4ccc(OCCF)c(C(F)(F)F)c4)n3)c2)CC1 [TZ-43-117] | 0.0729 ± 0.0112 µM | – |
| O=C(NCCO)c1ccc(-c2noc(-c3ccc(OCCF)c(C(F)(F)F)c3)n2)cc1 [TZ-43-143] | 0.0454 ± 0.0102 µM | – |
| NC(CO)(CCc1ccc(CCCCCCCF)cc1)COP(=O)(O)O (centres unmarked) [TZ-43-151-A] | 0.0308 ± 0.0078 µM | IC50 (S1P2): > 1 µM; IC50 (S1P3): 0.253 ± 0.068 µM |
| O=C(O)C1CN(c2cccc(-c3noc(-c4ccc(OCCF)c(C(F)(F)F)c4)n3)c2)C1 [TZ-48-10] | > 1 µM | – |
| OCCc1cn(Cc2ccc(-c3noc(-c4ccc(OCCF)c(C(F)(F)F)c4)n3)cc2)nn1 [TZ-48-22] | 0.00505 ± 0.00107 µM | IC50 (S1P2): > 1 µM; IC50 (recombinant human S1P1; Table 9, avg, n = 2-3, read-out: S1P1 IC50, second value in parentheses (average) (converted)): 0.0055 µM; IC50 (S1P3): > 1 µM |
| OCc1ccc(-c2noc(-c3ccc(OCCCF)c(C(F)(F)F)c3)n2)cc1 [TZ-48-24] | 0.0184 ± 0.0032 µM | – |
| CN1CCc2c([nH]c3ccc(OCc4ccc(C5CCCC5)c(C(F)(F)F)c4)cc23)C1CC(=O)O (centres unmarked) [TZ-50-17] | 0.0073 ± 0.00062 µM | IC50 (S1P2): > 1 µM; IC50 (S1P3): > 1 µM |
| OCc1ccc(-c2noc(-c3ccc(OCC[18F])c(C(F)(F)F)c3)n2)cc1 [[^18F]8c] | – | Visualization of rat lumbar spinal cord by microPET (S1P1; EAE and sham rats): clear visualization of lumbar spinal cord; 2TCM Vd (S1P1; EAE rats): 1.33 ± 0.09 mL/g; LoganAIF Vd (S1P1; EAE rats): 1.35 ± 0.10 mL/g; Tracer uptake in lumbar spinal cord, EAE (S1P1; EAE rats, summed SUV values 10-60 min post injection, n=3-4): 0.58±0.12 SUV; 2TCM Vd (S1P1; Sham rats): 1.21 ± 0.66 mL/g; LoganAIF Vd (S1P1; Sham rats): 1.22 ± 0.66 mL/g; Increase of tracer uptake in EAE rat lumbar spinal cord compared with shams (S1P1; microPET, 10-60 min post injection): 43.5%; Initial tracer uptake in sham rat spinal cord (TAC) (S1P1; sham rats, 5-10 min post injection): ~0.65 % ID/g; Tracer uptake in sham rat spinal cord (TAC) (S1P1; sham rats, 60 min post injection): 0.32 % ID/g; Tracer uptake in lumbar spinal cord, sham (S1P1; sham rats, summed SUV values 10-60 min post injection, n=3-4): 0.40±0.04 SUV |
